# Experimental data as given in patent US20140343000A1 (priority 2011, published 2014).
# Tested on: recombinant NL4-3 virus (Renilla luciferase in nef, Gag P373S; NLRluc) in MT-2 cells
# Assay: whole plant or invertebrate
# Format: cell-based, HIV
# Conditions: Renilla, NL43, luciferase activity in cells infected for 4-5 days with NLRluc recombinants, serial dilutions of inhibitor; class symbols (key in Table 1); read-out: EC50
# Summary of the method: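 MT-2 cells in RPMI 1640 with 10% heat-inactivated FBS were infected with the reporter virus, made by transfecting the proviral clone into 293T cells, and cultured 4-5 days with serial inhibitor dilutions. Antiviral activity was quantified from Renilla luciferase activity measured in lysed cells.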
row,Structure (SMILES),EC50 [nM]
1,"C=C(C)[C@@H]1CC[C@]2(NCCNS(=O)(=O)CCC)CC[C@]3(C)[C@H](CC[C@@H]4[C@@]5(C)CC=C(c6ccc(C(=O)O)cc6)C(C)(C)[C@@H]5CC[C@]43C)[C@@H]12 [Example B34, 4-((1R,3aS,5aR,5bR,7aR,11aS,11bR,13aR,13bR)-5a,5b,8,8,11a-pentamethyl-1-(prop-1-en-2-yl)-3a-((2-(propylsulfonamido)ethyl)amino)-2,3,3a,4,5,5a,5b,6,7,7a,8,11,11a,11b,12,13,13a,13b-octadecahydro-1H-cyclopenta[a]chrysen-9-yl)benzoic acid]",< 100
2,"C=C(C)[C@@H]1CC[C@]2(NCCN3CCN(S(=O)(=O)CC(C)C)CC3)CC[C@]3(C)[C@H](CC[C@@H]4[C@@]5(C)CC=C(c6ccc(C(=O)O)cc6)C(C)(C)[C@@H]5CC[C@]43C)[C@@H]12 [Example B35, 4-((1R,3aS,5aR,5bR,7aR,11aS,11bR,13aR,13bR)-3a-((2-(4-(isobutylsulfonyl)piperazin-1-yl)ethyl)amino)-5a,5b,8,8,11a-pentamethyl-1-(prop-1-en-2-yl)-2,3,3a,4,5,5a,5b,6,7,7a,8,11,11a,11b,12,13,13a,13b-octadecahydro-1H-cyclopenta[a]chrysen-9-yl)benzoic acid]",< 100
3,"C=C(C)[C@@H]1CC[C@]2(NCCN3CCN(S(=O)(=O)c4cccnc4)CC3)CC[C@]3(C)[C@H](CC[C@@H]4[C@@]5(C)CC=C(c6ccc(C(=O)O)cc6)C(C)(C)[C@@H]5CC[C@]43C)[C@@H]12 [Example B36, 4-((1R,3aS,5aR,5bR,7aR,11aS,11bR,13aR,13bR)-5a,5b,8,8,11a-pentamethyl-1-(prop-1-en-2-yl)-3a-((2-(4-(pyridin-3-ylsulfonyl)piperazin-1-yl)ethyl)amino)-2,3,3a,4,5,5a,5b,6,7,7a,8,11,11a,11b,12,13,13a,13b-octadecahydro-1H-cyclopenta[a]chrysen-9-yl)benzoic acid]",< 100
4,"C=C(C)[C@@H]1CC[C@]2(NCCN3CCN(S(=O)(=O)N(CC)CC)CC3)CC[C@]3(C)[C@H](CC[C@@H]4[C@@]5(C)CC=C(c6ccc(C(=O)O)cc6)C(C)(C)[C@@H]5CC[C@]43C)[C@@H]12 [Example B37, 4-((1R,3aS,5aR,5bR,7aR,11aS,11bR,13aR,13bR)-3a-((2-(4-(N,N-diethylsulfamoyl)piperazin-1-yl)ethyl)amino)-5a,5b,8,8,11a-pentamethyl-1-(prop-1-en-2-yl)-2,3,3a,4,5,5a,5b,6,7,7a,8,11,11a,11b,12,13,13a,13b-octadecahydro-1H-cyclopenta[a]chrysen-9-yl)benzoic acid]",< 100
5,"C=C(C)[C@@H]1CC[C@]2(NCCN3CCN(S(=O)(=O)CCCCl)CC3)CC[C@]3(C)[C@H](CC[C@@H]4[C@@]5(C)CC=C(c6ccc(C(=O)O)cc6)C(C)(C)[C@@H]5CC[C@]43C)[C@@H]12 [Example B38, 4-((1R,3aS,5aR,5bR,7aR,11aS,11bR,13aR,13bR)-3a-((2-(4-((3-chloropropyl)sulfonyl)piperazin-1-yl)ethyl)amino)-5a,5b,8,8,11a-pentamethyl-1-(prop-1-en-2-yl)-2,3,3a,4,5,5a,5b,6,7,7a,8,11,11a,11b,12,13,13a,13b-octadecahydro-1H-cyclopenta[a]chrysen-9-yl)benzoic acid]",< 100
6,"C=C(C)[C@@H]1CC[C@]2(NCCN3CCN(S(=O)(=O)CCCC)CC3)CC[C@]3(C)[C@H](CC[C@@H]4[C@@]5(C)CC=C(c6ccc(C(=O)O)cc6)C(C)(C)[C@@H]5CC[C@]43C)[C@@H]12 [Example B39, 4-((1R,3aS,5aR,5bR,7aR,11aS,11bR,13aR,13bR)-3a-((2-(4-(butylsulfonyl)piperazin-1-yl)ethyl)amino)-5a,5b,8,8,11a-pentamethyl-1-(prop-1-en-2-yl)-2,3,3a,4,5,5a,5b,6,7,7a,8,11,11a,11b,12,13,13a,13b-octadecahydro-1H-cyclopenta[a]chrysen-9-yl)benzoic acid]",< 100
7,"C=C(C)[C@@H]1CC[C@]2(NCCN3CCN(S(=O)(=O)c4ccc(CC)cc4)CC3)CC[C@]3(C)[C@H](CC[C@@H]4[C@@]5(C)CC=C(c6ccc(C(=O)O)cc6)C(C)(C)[C@@H]5CC[C@]43C)[C@@H]12 [Example B40, 4-((1R,3aS,5aR,5bR,7aR,11aS,11bR,13aR,13bR)-3a-((2-(4-((4-ethylphenyl)sulfonyl)piperazin-1-yl)ethyl)amino)-5a,5b,8,8,11a-pentamethyl-1-(prop-1-en-2-yl)-2,3,3a,4,5,5a,5b,6,7,7a,8,11,11a,11b,12,13,13a,13b-octadecahydro-1H-cyclopenta[a]chrysen-9-yl)benzoic acid]",< 100
8,"C=C(C)[C@@H]1CC[C@]2(NCCN3CCN(S(=O)(=O)Cc4ccccc4)CC3)CC[C@]3(C)[C@H](CC[C@@H]4[C@@]5(C)CC=C(c6ccc(C(=O)O)cc6)C(C)(C)[C@@H]5CC[C@]43C)[C@@H]12 [Example B41, 4-((1R,3aS,5aR,5bR,7aR,11aS,11bR,13aR,13bR)-3a-((2-(4-(benzylsulfonyl)piperazin-1-yl)ethyl)amino)-5a,5b,8,8,11a-pentamethyl-1-(prop-1-en-2-yl)-2,3,3a,4,5,5a,5b,6,7,7a,8,11,11a,11b,12,13,13a,13b-octadecahydro-1H-cyclopenta[a]chrysen-9-yl)benzoic acid]",< 100
9,"C=C(C)[C@@H]1CC[C@]2(NCCN3CCN(S(=O)(=O)CS(C)(=O)=O)CC3)CC[C@]3(C)[C@H](CC[C@@H]4[C@@]5(C)CC=C(c6ccc(C(=O)O)cc6)C(C)(C)[C@@H]5CC[C@]43C)[C@@H]12 [Example B42, 4-((1R,3aS,5aR,5bR,7aR,11aS,11bR,13aR,13bR)-5a,5b,8,8,11a-pentamethyl-3a-((2-(4-(((methylsulfonyl)methyl)sulfonyl)piperazin-1-yl)ethyl)amino)-1-(prop-1-en-2-yl)-2,3,3a,4,5,5a,5b,6,7,7a,8,11,11a,11b,12,13,13a,13b-octadecahydro-1H-cyclopenta[a]chrysen-9-yl)benzoic acid]",< 100
10,"C=C(C)[C@@H]1CC[C@]2(NCCN3CCN(S(=O)(=O)c4cn(C)cn4)CC3)CC[C@]3(C)[C@H](CC[C@@H]4[C@@]5(C)CC=C(c6ccc(C(=O)O)cc6)C(C)(C)[C@@H]5CC[C@]43C)[C@@H]12 [Example B43, 4-((1R,3aS,5aR,5bR,7aR,11aS,11bR,13aR,13bR)-5a,5b,8,8,11a-pentamethyl-3a-((2-(4-((1-methyl-1H-imidazol-4-yl)sulfonyl)piperazin-1-yl)ethyl)amino)-1-(prop-1-en-2-yl)-2,3,3a,4,5,5a,5b,6,7,7a,8,11,11a,11b,12,13,13a,13b-octadecahydro-1H-cyclopenta[a]chrysen-9-yl)benzoic acid]",< 100
11,"C=C(C)[C@@H]1CC[C@]2(NCCN3CCN(S(=O)(=O)c4ccccc4)CC3)CC[C@]3(C)[C@H](CC[C@@H]4[C@@]5(C)CC=C(c6ccc(C(=O)O)cc6)C(C)(C)[C@@H]5CC[C@]43C)[C@@H]12 [Example B44, 4-((1R,3aS,5aR,5bR,7aR,11aS,11bR,13aR,13bR)-5a,5b,8,8,11a-pentamethyl-3a-((2-(4-(phenylsulfonyl)piperazin-1-yl)ethyl)amino)-1-(prop-1-en-2-yl)-2,3,3a,4,5,5a,5b,6,7,7a,8,11,11a,11b,12,13,13a,13b-octadecahydro-1H-cyclopenta[a]chrysen-9-yl)benzoic acid]",< 100
12,"C=C(C)[C@@H]1CC[C@]2(NCCN3CCN(S(=O)(=O)c4ccc(Cl)cc4)CC3)CC[C@]3(C)[C@H](CC[C@@H]4[C@@]5(C)CC=C(c6ccc(C(=O)O)cc6)C(C)(C)[C@@H]5CC[C@]43C)[C@@H]12 [Example B46, 4-((1R,3aS,5aR,5bR,7aR,11aS,11bR,13aR,13bR)-3a-((2-(4-((4-chlorophenyl)sulfonyl)piperazin-1-yl)ethyl)amino)-5a,5b,8,8,11a-pentamethyl-1-(prop-1-en-2-yl)-2,3,3a,4,5,5a,5b,6,7,7a,8,11,11a,11b,12,13,13a,13b-octadecahydro-1H-cyclopenta[a]chrysen-9-yl)benzoic acid]",< 100
13,"C=C(C)[C@@H]1CC[C@]2(NCCN3CCN(S(=O)(=O)c4ccc(OC)cc4)CC3)CC[C@]3(C)[C@H](CC[C@@H]4[C@@]5(C)CC=C(c6ccc(C(=O)O)cc6)C(C)(C)[C@@H]5CC[C@]43C)[C@@H]12 [Example B47, 4-((1R,3aS,5aR,5bR,7aR,11aS,11bR,13aR,13bR)-3a-((2-(4-((4-methoxyphenyl)sulfonyl)piperazin-1-yl)ethyl)amino)-5a,5b,8,8,11a-pentamethyl-1-(prop-1-en-2-yl)-2,3,3a,4,5,5a,5b,6,7,7a,8,11,11a,11b,12,13,13a,13b-octadecahydro-1H-cyclopenta[a]chrysen-9-yl)benzoic acid]",< 100

# Same assay, conditions: Renilla, NL43, luciferase activity in cells infected for 4-5 days with NLRluc recombinants, serial dilutions of inhibitor; numeric values; read-out: EC50
row,Structure (SMILES),EC50 [nM]
1,"C=C(C)[C@@H]1CC[C@]2(NCCNS(=O)(=O)CC)CC[C@]3(C)[C@H](CC[C@@H]4[C@@]5(C)CC=C(c6ccc(C(=O)O)cc6)C(C)(C)[C@@H]5CC[C@]43C)[C@@H]12 [Example B33, 4-((1R,3aS,5aR,5bR,7aR,11aS,11bR,13aR,13bR)-3a-((2-(ethylsulfonamido)ethyl)amino)-5a,5b,8,8,11a-pentamethyl-1-(prop-1-en-2-yl)-2,3,3a,4,5,5a,5b,6,7,7a,8,11,11a,11b,12,13,13a,13b-octadecahydro-1H-cyclopenta[a]chrysen-9-yl)benzoic acid]",5
2,"C=C(C)[C@@H]1CC[C@]2(NCCN3CCN(S(=O)(=O)c4cccc(OC)c4)CC3)CC[C@]3(C)[C@H](CC[C@@H]4[C@@]5(C)CC=C(c6ccc(C(=O)O)cc6)C(C)(C)[C@@H]5CC[C@]43C)[C@@H]12 [Example B45, 4-((1R,3aS,5aR,5bR,7aR,11aS,11bR,13aR,13bR)-3a-((2-(4-((3-methoxyphenyl)sulfonyl)piperazin-1-yl)ethyl)amino)-5a,5b,8,8,11a-pentamethyl-1-(prop-1-en-2-yl)-2,3,3a,4,5,5a,5b,6,7,7a,8,11,11a,11b,12,13,13a,13b-octadecahydro-1H-cyclopenta[a]chrysen-9-yl)benzoic acid]",4
